Measurements reported in patent US20110251144A1, “MOLECULAR MODULATORS OF THE WNT/BETA-CATENIN PATHWAY” (MASSACHUSETTS INSTITUTE OF TECHNOLOGY, priority 2008, published 2011).
“Also recorded” adds a separate entry of the source. Read-outs that look alike come from different tables or passages of the source.

How the values were obtained:
[1] = test system: Axin2, Si/Gp100, Kit and other melanocytic genes; assay: Quantitative PCR of endogenous gene targets in B16 melanoma cells; format: cell-based, murine
Method: Cells were cultured for approximately 72 hours until they reached 80-90% confluency. RNA was purified using the RNeasy kit using the manufacturer's protocol (Qiagen; Maryland, MD). cDNA was synthesized using Superscript Reverse Transcriptase (Invitrogen; Grand Island, N.Y.). […] Quantitative PCR results presented in the manuscript are representative of experiments performed on a minimum of three biologic replicates.

B16 cells [2] = assay: Proliferation of B16 cells by MTT assay; format: cell-based, murine
nuclear β-catenin = assay: Immunofluorescent staining of β-catenin in B16 cells; format: cell-based, murine; conditions: 10 mM lithium chloride or BIO, versus sodium chloride or DMSO
Method: A polyclonal rabbit anti-β-catenin antibody was used for detection of β-catenin (1:1000 dilution for immunoblot, 1:200 dilution for immunohistochemistry). Cells were grown on 18 mm glass coverslips, for 48-72 hours, fixed using 4% paraformaldahyde, permeabilized using 0.25% Triton X-100, and then blocked with 10% goat serum. Goat anti-rabbit Alexa Fluor-568 antibody (Molecular Probes; Eugene, Oreg.) was diluted 1:1000. Cells were counterstained for nucleic acid with DAPI (Molecular Probes; Eugene, Oreg.). Paraffin-embedded nevus sections were stained using an antibody dilution of 1:200. Cellular lysates were obtained by lysing cells on plate with a 0.1% NP-40 based buffer and analyzed by NuPage 4-12% gradient gels (Invitrogen; Grand Island, N.Y.). The WNT5A antibody was obtained from Cell Signaling Technologies (Danvers, Mass.).

[3] = Suitability for murine therapeutic trials (toxicity, serum levels); format: in vivo; conditions: mice
[4] = test system: Wnt/β-catenin signaling (beta-catenin activated reporter, BAR); assay: High throughput small molecule screen, beta-catenin activated reporter (BAR) in HT22 cells; format: cell-based, mouse
Method: Compounds were dissolved in dimethylsulphoxide (DMSO). For the primary screen, performed in duplicate, HT22 cells stably expressing the beta-catenin activated reporter (BAR) were cultured in growth medium (DMEM/10% FBS/1% antibiotic). 3000 cells per well were transferred to 384-well clear bottom plates (Nalgene Nunc; Rochester, N.Y.) in 30 μL of growth medium. The following day, […] of compound and 10 μL of either growth media or WNT3A conditioned media (E.C.50 dose) was transferred to the cells. The next day each well was imaged using transmitted light with the ImageXpress Micro (Molecular devices; Sunnyvale, Calif.) followed by the addition of 10 μL of Steady-Glo (Promega; Madison, Wis.) as per the manufacture's instructions, and luminescence measurement on an EnVision Multilabel plate reader (PerkinElmer; Waltham, Mass.). Viability was scored by analyzing the ImageXpress images. As described in detail in Seiler et al. (Seiler et al., Nucleic Acids Res. 36:D351 (2008), which is hereby incorporated by reference in its entirety), each compound well received an algebraically signed Z-score corresponding to the number of standard deviations it fell above or below the mean of a well-defined mock-treatment distribution of DMSO controls. Z-score normalized data from the growth media stimulus group were sorted by average percent change. The fold-increase over the background of DMSO controls for each treatment was also calculated. Top compounds with the greatest percent change of activity with the growth media were then resorted based on the percent change with the WNT3A stimulus.
These compounds represent FDA approved compounds and drugs or known bioactive molecules. RKO (human colorectal carcinoma red line) and HT22 (mouse hyppocampal line) cell lines were screened. The lines were tested without a stimulus, in presence of an E.C.50 dose of Wnt 3A condition media and in presence of a subthreshold dose of LiCl.

[5] = test system: Wnt/β-catenin signaling (beta-catenin activated reporter, BAR); assay: High throughput small molecule screen, Wnt/β-catenin reporter in RKO cells; format: cell-based, human
Axin2 promoter = assay: Secondary screen, firefly luciferase under the Axin2 promoter in HEK293T cells; format: cell-based; conditions: alone and with WNT3A conditioned media
B16 cells [6] = assay: Pigmentation of cultured B16 cells; format: cell-based, murine; conditions: B16 cells treated for 2 passages, 10 μM
B16 melanoma cells = assay: B16 footpad tumor inoculation, tumor size and metastasis in C57BL/6 mice; format: in vivo
Method: Footpad injections of transduced B16 melanoma cells and measurement of popliteal lymph node and lung metastasis was performed as previously described (Murakami et al., Cancer Res. 62:7328 (2002), which is hereby incorporated by reference in its entirety). […] Fumagalli et al., Exp. Neurol. 198:114 (2006), which are hereby incorporated by reference in their entirety). […] All animal studies were performed using IACUC protocols approved by institutional review boards.

[7] = test system: human melanoma xenografts; conditions: mouse model, Namkoong et al. 2007; cited from earlier work
[8] = 10 mM lithium chloride or 1 μM BIO
[9] = HT22 cells, in presence of a subthreshold dose of LiCl
[10] = HT22 cells, in presence of an E.C.50 dose of Wnt 3A condition media
[11] = RKO cells, in presence of a subthreshold dose of LiCl
[12] = RKO cells, in presence of an E.C.50 dose of Wnt 3A condition media

Molecule	HT22 Li [4]	HT22 Wnt3a [4]	RKO Li [5]	RKO Wnt3a [5]	HT22 Li [4, 9]	HT22 Wnt3a [4, 10]	RKO Li [5, 11]	RKO Wnt3a [5, 12]	further results
O=C1Nc2cc(Br)ccc2/C1=C1/Nc2ccccc2/C1=N\O [BIO, 6-bromoindirubin-3′-oxime]	–	–	–	–	–	–	–	–	Axin2 levels by quantitative PCR [1, 8]: increased Axin2 levels; Proliferation by MTT assay (B16 cells [2]; [8]): decreased proliferation; Nuclear β-catenin by immunofluorescent staining (nuclear β-catenin): increased nuclear β-catenin; Obstacles to murine therapeutic trials [3]: several obstacles relating to both toxicity
Cl.Cl.FC(F)(F)c1ccc2c(c1)N(CCCN1CCN(CCCl)CC1)c1ccccc1S2 [Fluphenazine-N-2-chloroethane, Dihydrochloride]	1.32	0.13	4.27	0.08	–	–	–	–	–
Cc1[nH]c(=O)c(C#N)cc1-c1ccncc1 [milrinone]	0.98	1.75	1.00	1.20	–	–	–	–	–
Nc1nc2ccc(OC(F)(F)F)cc2s1 [riluzole]	–	–	–	–	–	–	–	–	Activation of firefly luciferase under the Axin2 promoter (Axin2 promoter): both on its own as well as in synergy with WNT3A conditioned media; Expression of melanocytic genes ([1]; 72 hours, 10 mM lithium chloride or 10 μM riluzole): elevation in levels of melastatin (Trpm1) and Kit transcripts; also recorded: upregulation of melanocytic genes; Pigmentation (B16 cells [6]): increased pigmentation; Proliferation by MTT assay (B16 cells [2]; three days, 10 μM riluzole): decreased proliferation; Sentinel popliteal lymph node metastasis (Firefly luciferase) (B16 melanoma cells; 9 mice per group, versus control mice with no treatment): significantly decreased metastasis; Tumor size (B16 melanoma cells; after 21 days, treatment initiated one week post-injection, oral in drinking water): No significant difference; Lung metastasis, mice affected (B16 melanoma cells; versus 3 out of 9 control mice): 0 out of 9; Proliferation / growth of human melanoma xenografts [7]: could decrease proliferation of human melanoma xenografts
CCCCCCCCCCCCCCCCCC(=O)O[C@H](CC(=O)[O-])C[N+](C)(C)C [stearoylcarnitine]	–	–	–	–	3.21	0.38	0.92	0.10	–
azathioprine	–	–	–	–	0.76	2.67	1.06	1.30	–
